# Assay results taken from the supplement of paper PMC10307832.
# Assays:
# Assay in all cases: relative viability (nuclei count vs DMSO), 5 days (fraction); higher = more cells survive
# Trametinib + Pictilisib = compound: CC(=O)Nc1cccc(-n2c(=O)n(C3CC3)c(=O)c3c(Nc4ccc(I)cc4F)n(C)c(=O)c(C)c32)c1 [Trametinib] + CS(=O)(=O)N1CCN(Cc2cc3nc(-c4cccc5[nH]ncc45)nc(N4CCOCC4)c3s2)CC1 [Pictilisib] (partner 1 µM)
# How it was run: (§1)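 The day after seeding in 1536-well plates, lung cancer cell lines were treated by pin tool with a single drug, or with a fixed anchor-drug dose together with five library-drug doses (not always all listed) in √10 steps. After 5 days, a combined fix-and-stain solution (final 0.05% Triton X-100, 1% formaldehyde, 1 ug/ml Hoechst) was added. Nuclei counted on 4× images gave relative viability as treated counts over vehicle counts, reported as the median of duplicate plates.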
# Trametinib + Dasatinib = compound: CC(=O)Nc1cccc(-n2c(=O)n(C3CC3)c(=O)c3c(Nc4ccc(I)cc4F)n(C)c(=O)c(C)c32)c1 [Trametinib] + Cc1nc(Nc2ncc(C(=O)Nc3c(C)cccc3Cl)s2)cc(N2CCN(CCO)CC2)n1 [Dasatinib] (partner 0.075 µM)
# How it was run: as §1
# Trametinib + Olaparib = compound: CC(=O)Nc1cccc(-n2c(=O)n(C3CC3)c(=O)c3c(Nc4ccc(I)cc4F)n(C)c(=O)c(C)c32)c1 [Trametinib] + O=C(c1cc(Cc2n[nH]c(=O)c3ccccc23)ccc1F)N1CCN(C(=O)C2CC2)CC1 [Olaparib] (partner 8 µM)
# How it was run: as §1
# [1] = compound: CN1C=C(C2=CC=CC=C21)/C=C\3/C4=C(C=CC=N4)NC3=O + CC1(C)CCC(c2ccc(Cl)cc2)=C(CN2CCN(c3ccc(C(=O)NS(=O)(=O)c4ccc(N[C@H](CCN5CCOCC5)CSc5ccccc5)c(S(=O)(=O)C(F)(F)F)c4)cc3)CC2)C1 [Navitoclax] (partner 0.5 µM)
# How it was run: as §1
cell line,measurement,setting,value
UMC-11,relative viability,Trametinib + Pictilisib; first compound 0.0025 µM,0.662
same,relative viability,Trametinib + Pictilisib; first compound 0.007906 µM,0.785
same,relative viability,Trametinib + Pictilisib; first compound 0.025 µM,0.297
same,relative viability,Trametinib + Pictilisib; first compound 0.07906 µM,0.709
same,relative viability,Trametinib + Pictilisib; first compound 0.25 µM,0.663
same,relative viability,Trametinib + Dasatinib; first compound 0.0025 µM,0.446
same,relative viability,Trametinib + Dasatinib; first compound 0.007906 µM,0.509
same,relative viability,Trametinib + Dasatinib; first compound 0.025 µM,0.385
same,relative viability,Trametinib + Dasatinib; first compound 0.07906 µM,0.491
same,relative viability,Trametinib + Dasatinib; first compound 0.25 µM,0.49
same,relative viability,Trametinib + Olaparib; first compound 0.0025 µM,0.547
same,relative viability,Trametinib + Olaparib; first compound 0.007906 µM,0.455
same,relative viability,Trametinib + Olaparib; first compound 0.07906 µM,0.303
same,relative viability,Trametinib + Olaparib; first compound 0.25 µM,0.29
same,relative viability,[1]; first compound 0.02 µM,0.24
same,relative viability,[1]; first compound 0.06325 µM,0.318
same,relative viability,[1]; first compound 0.2 µM,0.288
same,relative viability,[1]; first compound 0.6325 µM,0.362
same,relative viability,[1]; first compound 2 µM,0.391
